{
  "source": "patent US4558033A",
  "about": "“Potentiation of the effects of insulin by peptides” (Amgen, priority 1983, dated 1985)",
  "key": {"[1]": {"system": "GT-impaired strain of mice (YS/Wf Nctr)", "details": "cited from earlier work"}, "normal dog": {"system": "normal dog", "details": "portal infusion 1 μg/kg/min", "quoted_text": "Two studies were conducted to determine the effects of deletion peptide on dogs."}, "[2]": {"system": "rats given an intraperitoneal glucose load", "experiment": "Plasma glucose in rats given an intraperitoneal glucose load, increasing insulin doses with and without 100 μg DP (Example 3)", "format": "in vivo", "details": "for Plasma Glucose at 60 minutes: i.p. glucose load", "method": "(§1) A study was conducted to determine the effect on plasma glucose of deletion peptide, with and without insulin, in rats given an intraperitoneal glucose load. Groups of five male Sprague-Dawley rats were involved in this study. All weighed between 160 to 168 grams and were maintained on standard laboratory diet until 18 hours prior to the test procedures. Test groups of fasted rats received, in rapid succession, 1.0 ml of 0.75 M glucose, 10 mU of insulin in admixture with 1% bovine serum albumin (BSA) in normal saline (pH 7.4), and either 0, 25, 50 or 100 μg doses of deletion peptide. Control groups of rats received glucose and 1% BSA in saline with no insulin but with similarly varying levels of deletion peptide. Plasma glucose determinations were made on blood drawn one hour after administration of test substances and the results (means, ± standard errors) of these determinations are set out in Table I below.\nA study was conducted under the same general procedures as Example 2 to determine the effect of increasing doses of insulin, with and without 100 μg of deletion peptide, on rats given an intraperitoneal glucose load. The results of plasma glucose determinations on blood drawn after 60 minutes are set out below in Table II."}, "Rhesus monkeys": {"system": "Rhesus monkeys", "experiment": "Induced hyperglycemia in Rhesus monkeys, plasma glucose over two hours (Example 6)", "format": "in vivo", "details": "at all post-injection times", "method": "A study was conducted to determine the effects of deletion peptide on induced hyperglycemia in Rhesus monkeys. Blood samples were taken from normal female monkeys (in three experimental groups of three) five minutes before administration of an oral dose of 3.0 ml/kg of 0.5 g/ml glucose and intramuscular administration of either: (1) 0.5 ml/kg phosphate buffered saline (PBS), pH 7.4; (2) deletion peptide 0.1 ml/kg of 1.0 mg/ml solution in PBS; (3) deletion peptide as above combined with 0.5 ml/kg of 20 mU/ml insulin in PBS; or (4) insulin alone as above. Blood samples were then periodically withdrawn over two hours and analyzed for plasma glucose levels. Plasma glucose level data is set out in Table IV."}, "[3]": {"system": "adipocytes isolated from normal rats", "experiment": "In vitro glucose utilization of adipocytes isolated from normal rats", "format": "cell-based", "from_the_text": "(§2) The present invention has its origins, in part, in the results of an extensive series of controlled experiments designed to study the effects of deletion peptide: (a) on in vivo glucose metabolism in normal rats; (b) on in vivo insulin-stimulated glucose uptake by normal rat liver and skeletal muscle tissue; (c) on growth of hypophysectomized rats; and (d) on in vitro glucose utilization of adipocytes isolated from normal rats."}, "hypophysectomized rats": {"system": "hypophysectomized rats", "experiment": "Growth of hypophysectomized rats", "format": "in vivo", "from_the_text": "as §2"}, "normal rats [4]": {"system": "normal rats", "experiment": "In vivo glucose metabolism in normal rats", "from_the_text": "as §2"}, "[5]": {"system": "normal rat liver and skeletal muscle tissue", "experiment": "In vivo insulin-stimulated glucose uptake by normal rat liver and skeletal muscle tissue", "details": "administration in combination with insulin", "from_the_text": "as §2"}, "normal rats [6]": {"system": "normal rats", "details": "cited from earlier work"}, "[7]": {"system": "insulin-stimulated fat cells of older obese rats", "details": "in vitro; cited from earlier work"}, "[8]": {"system": "mice ob/ob, ob/+, db/db, db/m", "experiment": "Plasma glucose after glucose load, fixed insulin and DP doses, normal and genetically abnormal mice (Example 4)", "format": "in vivo", "details": "all animals tested in Example 4 (mice and rats)", "method": "A study was conducted to ascertain the effects of fixed amounts of deletion peptide and insulin on various animal models, including rats and normal and genetically abnormal mice.\nAnimals in test groups of five each were employed in these procedures. Sprague-Dawley rats weighed approximately 200 grams; homozygous genetically abnormal mice (ob/ob and db/db) had weights in the range of 40 to 60 grams; and heterozygous normal mice (ob/+ and db/m) all weighed approximately 25 grams. Glucose was administered intraperitoneally at a dosage of 0.05 ml/10g of a solution containing 135 mg/ml glucose, except for one group of rats which were given an oral dose of glucose comprising 1 ml of 270 mg/ml glucose solution. Insulin was administered at a dose of 0.001 mU/10g and deletion peptide was simultaneously intraperitoneally administered at a dose of 5.0 μg/10g.\nThe results of plasma glucose determinations performed on blood drawn one hour after administration of test materials are set out in Table III, below."}, "[9]": {"experiment": "Ongoing studies of deletion peptide biological activities in in vivo systems", "details": "preliminary evidence", "from_the_text": "The above examples establish that deletion peptide alone has no immediate and direct hypoglyamic effect within the protocols of investigations conducted to date. […] Further, certain of these effects appear to be shared by peptides disclosed and claimed in co-owned, co-pending, concurrently-filed U.S. Patent application Ser. No. 501,024, by the inventor herein and co-inventor Theodore Jones, entitled \"Biologically Active Peptides Structurally Related to Regions Within Growth Hormones,\" the disclosures of which are incorporated by reference herein."}, "[10]": {"system": "rats given an intraperitoneal glucose load", "experiment": "Plasma glucose in rats given an intraperitoneal glucose load, DP with and without insulin (Example 2)", "format": "in vivo, Sprague-Dawley rats", "details": "for Plasma Glucose at 60 minutes: i.p. glucose load", "method": "as §1"}},
  "note": "No end group written: not given here.",
  "data": [
    {"sequence": "EEAYIPKEQKYSFLQ [DP, NH2 -Glu-Glu-Ala-Tyr-Ile-Pro-Lys-Glu-Gln-Lys-Tyr-Ser-Phe-Leu-Gln-COOH]", "values": [
      {"measurement": "glucose tolerance", "setting": "[1]", "value": "unspecified degree of improvement in glucose tolerance"},
      {"measurement": "plasma and hepatic glucose output", "setting": "normal dog", "value": "minor transient fall"},
      {"measurement": "glycemic effects", "setting": "normal dog; over a period of two hours", "value": "no glycemic effects"},
      {"measurement": "Plasma Glucose at 60 minutes", "setting": "[2]; 100 μg DP in 1.0% BSA in saline, 0 mU insulin", "value": "8.1 ± 0.2", "unit": "mmol/L"},
      {"measurement": "Plasma Glucose at 60 minutes", "setting": "[2]; 100 μg DP with insulin 7 mU per rat", "value": "7.6 ± 0.1", "unit": "mmol/L"},
      {"measurement": "Plasma Glucose at 60 minutes", "setting": "[2]; 100 μg DP with insulin 10 mU per rat", "value": "3.5 ± 0.1", "unit": "mmol/L"},
      {"measurement": "Plasma Glucose at 60 minutes", "setting": "[2]; 100 μg DP with insulin 20 mU per rat", "value": "3.1 ± 0.1", "unit": "mmol/L"},
      {"measurement": "Plasma Glucose at 60 minutes", "setting": "[2]; 100 μg DP with insulin 40 mU per rat", "value": "2.7 ± 0.1", "unit": "mmol/L"},
      {"measurement": "hypoglycemia", "setting": "[2]; deletion peptide in addition to 10 mU insulin", "value": "significant degree of hypoglycemia"},
      {"measurement": "potentiation of hypoglycemic effects of insulin", "setting": "[2]; higher doses of insulin with 100 μg deletion peptide", "value": "potentiated"},
      {"measurement": "potentiation of insulin effects", "setting": "Rhesus monkeys", "value": "potentiated insulin effects"},
      {"measurement": "insulin-stimulated glucose uptake by isolated adipocytes", "setting": "[3]", "value": "no effect on insulin-stimulated glucose uptake"},
      {"measurement": "growth stimulating effect", "setting": "hypophysectomized rats", "value": "no growth stimulating effect"},
      {"measurement": "hepatic glycogen synthesis", "setting": "normal rats [4]; administered alone", "value": "small, insulin-like effects in increasing hepatic glycogen synthesis"},
      {"measurement": "effects of exogenous insulin", "setting": "normal rats [4]; concurrently administered with exogenous insulin", "value": "substantially augmented the effects of exogenous insulin"},
      {"measurement": "hypoglycemic effect", "setting": "normal rats [4]; deletion peptide alone, normal rats", "value": "no hypoglycemic effect"},
      {"measurement": "incorporation of labelled glucose into liver and skeletal muscle tissue", "setting": "[5]", "value": "caused an alteration in the incorporation of labelled glucose"},
      {"measurement": "late increases in free fatty acids and glycemic effects", "setting": "normal rats [6]", "value": "did not show either the late increases in free fatty acids nor the glycemic effects"},
      {"measurement": "glucose utilization of insulin-stimulated fat cells", "setting": "[7]", "value": "in vitro increase in glucose utilization"},
      {"measurement": "potentiation of the hypoglycemic activity of insulin", "setting": "[8]", "value": "potentiated the hypoglycemic activity of insulin"},
      {"measurement": "biological activities in in vivo systems", "setting": "[9]", "value": "preliminary evidence of insulin secretory stimulation effects, effects on levels of free fatty acids, and effects on glucose uptake by hepatic and muscle tissue"},
      {"measurement": "Plasma Glucose at 60 minutes", "setting": "[10]; DP 25 μg per rat with 10 mU insulin in 1.0% BSA in saline", "value": "7.5 ± 0.1", "unit": "mmol/L"},
      {"measurement": "Plasma Glucose at 60 minutes", "setting": "[10]; DP 25 μg per rat, 1.0% BSA in saline, no insulin, fasted rats", "value": "8.1 ± 0.2", "unit": "mmol/L"},
      {"measurement": "Plasma Glucose at 60 minutes", "setting": "[10]; DP 50 μg per rat with 10 mU insulin in 1.0% BSA in saline", "value": "5.7 ± 0.3", "unit": "mmol/L"},
      {"measurement": "Plasma Glucose at 60 minutes", "setting": "[10]; DP 50 μg per rat, 1.0% BSA in saline, no insulin, fasted rats", "value": "7.7 ± 0.2", "unit": "mmol/L"},
      {"measurement": "Plasma Glucose at 60 minutes", "setting": "[10]; DP 100 μg per rat with 10 mU insulin in 1.0% BSA in saline", "value": "3.5 ± 0.1", "unit": "mmol/L"},
      {"measurement": "Plasma Glucose at 60 minutes", "setting": "[10]; DP 100 μg per rat, 1.0% BSA in saline, no insulin, fasted rats", "value": "8.0 ± 0.4", "unit": "mmol/L"},
      {"measurement": "effect on glycemia", "setting": "[10]; deletion peptide alone, up to 100 μg/rat", "value": "without effect on glycemia"},
      {"measurement": "hypoglycemic effects", "setting": "[10]; increasing doses of deletion peptide with 10 mU insulin", "value": "progressively greater degrees of hypoglycemic effects"},
      {"measurement": "effect on plasma glucose", "setting": "[10]; lowest dose of deletion peptide given with a low dose of insulin in BSA", "value": "small significant decrease in plasma glucose"}
    ]}
  ]
}
